Experiments:
Format in all cases: in vivo
Nilaparvata lugens = Nilaparvata lugens seedling dip test (paddy seedlings, third instar nymphs); conditions: 72 h after release, dead and moribund combined, compared to untreated control, read-out: percent mortality
Bemisia tabaci = Bemisia tabaci leaf dip test (brinjal leaves, whitefly adults); conditions: foliar, 72 h after release, dead and moribund combined, compared to untreated control, read-out: percent mortality
Method: The leaf dip method was used for testing, wherein the required quantity of the compound was weighed and dissolved in a tube containing a solvent solution. The tube was put on a vortex at 2000 rpm for 90 min for proper mixing and then the mixture was diluted with a 0.01% Triton-X solution to the desired test concentration. Brinjal leaves were dipped in the compound solution for 10 seconds, shade dried for 20 min and then placed, with the abaxial side of the leaf up, on 4 ml of a 1% agar-agar solution in respective container caps. Known numbers of freshly emerged whitefly adults were collected, using a modified aspirator, and released into a perforated container in which the cap containing the treated leaf was placed. The containers were kept in a plant growth chamber at a temperature of 25° C. and a relative humidity of 70%. Observations on dead, moribund and alive adults were recorded 72 h after the release. Percent mortality was calculated by combining dead and moribund adults and comparing the result to the one of the untreated control. The compounds 32 53 58 79 80 81 82 84 87 88 89 94 95 96 101 102 103 104 105 106 107 108 109 112 113 114 115 116 117 118 119 120 123 124 125 126 127 130 135 138 139 140 144 145 147 150 154 156 158 159 164 167 168 169 170 171 188 189 191 198 199 200 201 202 206 207 208 209 210 213 216 223 224 225 227 228 231 232 233 234 235 236 238 242 243 244 246 and 247 recorded≥70 percent mortality @ 300 PPM.

Myzus persicae = Myzus persicae leaf dip test (capsicum leaves, third instar nymphs); conditions: foliar, 72 h after release, dead and moribund combined, compared to untreated control, read-out: percent mortality

Measured: mortality at 300 ppm

O=c1nc2n(Cc3cnc(Cl)nc3)cccc-2c(=O)n1-c1ccc(F)cc1F [Compound 207, 8-((2-chloropyrimidin-5-yl)methyl)-3-(2,4-difluorophenyl)pyrido[2,3-d]pyrimidine-2,4(3H,8H)-dione]
≥ 70%: all assays above

O=c1nc2n(Cc3cnc(Cl)nc3)cccc-2c(=O)n1-c1ccc(F)c(F)c1 [Compound 120, 8-((2-chloropyrimidin-5-yl)methyl)-3-(3,4-difluorophenyl)pyrido[2,3-d]pyrimidine-2,4(3H,8H)-dione]
≥ 70%: all assays above

O=c1nc2n(Cc3cnc(Cl)nc3)cccc-2c(=O)n1-c1ccc(F)cc1Cl [Compound 225, 3-(2-chloro-4-fluorophenyl)-8-((2-chloropyrimidin-5-yl)methyl)pyrido[2,3-d]pyrimidine-2,4(3H,8H)-dione]
≥ 70%: all assays above

O=c1nc2n(Cc3cnc(Cl)nc3)cccc-2c(=O)n1-c1ccc(F)c(Br)c1 [Compound 234, 3-(3-bromo-4-fluorophenyl)-8-((2-chloropyrimidin-5-yl)methyl)pyrido[2,3-d]pyrimidine-2,4(3H,8H)-dione]
≥ 70%: all assays above

O=c1nc2n(Cc3cnc(Cl)s3)cccc-2c(=O)n1-c1ccc(OCC(F)(F)F)cc1 [Compound 243, 8-((2-chlorothiazol-5-yl)methyl)-3-(4-(2,2,2-trifluoroethoxy)phenyl)pyrido[2,3-d]pyrimidine-2,4(3H,8H)-dione]
≥ 70%: all assays above

O=c1nc2n(Cc3cnc(Cl)nc3)cccc-2c(=O)n1-c1ccc(OCC(F)(F)F)cc1 [Compound 216, 8-((2-chloropyrimidin-5-yl)methyl)-3-(4-(2,2,2-trifluoroethoxy)phenyl)pyrido[2,3-d]pyrimidine-2,4(3H,8H)-dione]
≥ 70%: all assays above

O=c1nc2n(Cc3ccc(Cl)nc3)cccc-2c(=O)n1-c1cccc(OC(F)(F)F)c1 [Compound 123, 8-((6-chloropyridin-3-yl)methyl)-3-(3-(trifluoromethoxy)phenyl)pyrido[2,3-d]pyrimidine-2,4(3H,8H)-dione]
≥ 70%: all assays above

O=c1nc2n(Cc3ccc(Cl)nc3)cccc-2c(=O)n1-c1ccc2c(c1)OC(F)(F)O2 [Compound 199, 8-((6-chloropyridin-3-yl)methyl)-3-(2,2-difluorobenzo[d][1,3]dioxol-5-yl)pyrido[2,3-d]pyrimidine-2,4(3H,8H)-dione]
≥ 70%: all assays above

O=c1nc2n(Cc3cnc(Cl)nc3)cccc-2c(=O)n1-c1cc(Cl)cc(Cl)c1 [Compound 201, 8-((2-chloropyrimidin-5-yl)methyl)-3-(3,5-dichlorophenyl)pyrido[2,3-d]pyrimidine-2,4(3H,8H)-dione]
≥ 70%: all assays above

O=c1nc2n(Cc3cnc(Cl)nc3)cccc-2c(=O)n1-c1ccc(Br)cc1 [Compound 159, 3-(4-bromophenyl)-8-((2-chloropyrimidin-5-yl)methyl)pyrido[2,3-d]pyrimidine-2,4(3H,8H)-dione]
≥ 70%: all assays above

O=c1nc2n(Cc3cnc(Cl)nc3)cccc-2c(=O)n1-c1ccc2c(c1)OC(F)(F)O2 [Compound 198, 8-((2-chloropyrimidin-5-yl)methyl)-3-(2,2-difluorobenzo[d][1,3]dioxol-5-yl)pyrido[2,3-d]pyrimidine-2,4(3H,8H)-dione]
≥ 70%: all assays above

O=c1nc2n(Cc3cnc(Cl)nc3)cccc-2c(=O)n1-c1ccc(Cl)c(F)c1 [Compound 208, 3-(4-chloro-3-fluorophenyl)-8-((2-chloropyrimidin-5-yl)methyl)pyrido[2,3-d]pyrimidine-2,4(3H,8H)-dione]
≥ 70%: all assays above

O=c1nc2n(Cc3cnc(Cl)s3)cccc-2c(=O)n1-c1ccc2c(c1)OC(F)(F)O2 [Compound 247, 8-((2-chlorothiazol-5-yl)methyl)-3-(2,2-difluorobenzo[d][1,3]dioxol-5-yl)pyrido[2,3-d]pyrimidine-2,4(3H,8H)-dione]
≥ 70%: all assays above

O=c1nc2n(Cc3cnc(Cl)nc3)cccc-2c(=O)n1-c1cccc(Cl)c1 [Compound 96, 3-(3-chlorophenyl)-8-((2-chloropyrimidin-5-yl)methyl)pyrido[2,3-d]pyrimidine-2,4(3H,8H)-dione]
≥ 70%: all assays above

O=c1nc2n(Cc3cnc(Cl)nc3)cccc-2c(=O)n1-c1ccc(Br)c(F)c1 [Compound 235, 3-(4-bromo-3-fluorophenyl)-8-((2-chloropyrimidin-5-yl)methyl)pyrido[2,3-d]pyrimidine-2,4(3H,8H)-dione]
≥ 70%: all assays above

O=c1nc2n(Cc3cnc(Cl)nc3)cccc-2c(=O)n1-c1cccc(F)c1 [Compound 118, 8-((2-chloropyrimidin-5-yl)methyl)-3-(3-fluorophenyl)pyrido[2,3-d]pyrimidine-2,4(3H,8H)-dione]
≥ 70%: all assays above

O=c1nc2n(Cc3cnc(Cl)nc3)cccc-2c(=O)n1-c1ccc(F)cc1 [Compound 117, 8-((2-chloropyrimidin-5-yl)methyl)-3-(4-fluorophenyl)pyrido[2,3-d]pyrimidine-2,4(3H,8H)-dione]
≥ 70%: all assays above

O=c1nc2n(Cc3cnc(Cl)nc3)cccc-2c(=O)n1-c1ccc(Cl)cc1 [Compound 82, 3-(4-chlorophenyl)-8-((2-chloropyrimidin-5-yl)methyl)pyrido[2,3-d]pyrimidine-2,4(3H,8H)-dione]
≥ 70%: all assays above

O=c1c2cccn(Cc3cnc(Cl)nc3)c-2nc(=S)n1-c1ccc(Cl)cc1 [Compound 210, 3-(4-chlorophenyl)-8-((2-chloropyrimidin-5-yl)methyl)-2-thioxo-2,8-dihydropyrido[2,3-d]pyrimidin-4(3H)-one]
≥ 70%: all assays above

O=c1nc2n(Cc3cnc(Cl)nc3)cccc-2c(=O)n1-c1ccc(F)c(C(F)(F)F)c1 [Compound 213, 8-((2-chloropyrimidin-5-yl)methyl)-3-(4-fluoro-3-(trifluoromethyl)phenyl)pyrido[2,3-d]pyrimidine-2,4(3H,8H)-dione]
≥ 70%: all assays above

Source: patent publication US20240425502A1, “BICYCLIC HETEROAROMATIC COMPOUNDS AND THEIR USE AS PEST CONTROL AGENTS” (PI INDUSTRIES LTD., priority 2021, published 2024)
